The results in this text go back to publication PMC3767463 (Journal of the American Chemical Society, 2013).

The conditions of data set [1]: mice, MCo-PMI 40 mg/kg i.v. daily.
A further data set relates to p53 level. The format is cell-based, human. To be noted: LNCaP; 50 μM MCo-PMI, 8–48 h; western blot.
In a further data set the test system is LNCaP cells. In words: Propidium iodide flow cytometric cell cycle assay. The data set is classed as cell-based, human. The following applies: LNCaP cells treated 24 h; propidium iodide flow cytometry.
A further data set has as its system PC3 cells. In words: MTT cell viability. The format is cell-based, human. The following applies: PC3 (non-functional p53), 0–100 μM, 48 h.
Another data set relates to caspase-3/7. Kind of data set: Caspase-3/7 assay in LNCaP cells. The data set is classed as cell-based, human. The following applies: LNCaP cells treated 30 h.
The next data set can be described thus: in vitro. The following applies: human, human serum.
Another data set relates to DU145 cells. Kind of data set: MTT cell viability. The following applies: DU145 (non-functional p53), 0–100 μM, 48 h. The data set is classed as cell-based, human.
The subject of a further data set is HdmX level. In words: Western blot of LNCaP cell extracts. To be noted: 48 h, cyclotides 50 μM. The data set is classed as cell-based, human.
Another data set deals with HBL100 cells. Kind of data set: MTT cell viability. To be noted: HBL100 normal breast epithelial cells, 48 h, triplicate.

On to `CC[C@H](C)[C@@H]1NC(=O)[C@@H]2CSSC[C@@H]3NC(=O)[C@H](C(C)C)NC(=O)CNC(=O)CNC(=O)[C@H](C)NC(=O)[C@H](CO)NC(=O)[C@H](CC(C)C)NC(=O)[C@H](CC(C)C)NC(=O)[C@H](CC(N)=O)NC(=O)[C@H](Cc4c[nH]c5ccccc45)NC(=O)[C@H](Cc4ccc(O)cc4)NC(=O)[C@H](CCC(=O)O)NC(=O)[C@H](C)NC(=O)[C@H](Cc4ccccc4)NC(=O)[C@H](CO)NC(=O)[C@H]([C@@H](C)O)NC(=O)[C@@H]4CCCN4C(=O)[C@H](C)NC(=O)[C@H](CCCCN)NC(=O)[C@H](CO)NC(=O)[C@H](C)NC(=O)CNC(=O)[C@H](CO)NC(=O)CNC(=O)[C@H](CO)NC(=O)CNC(=O)[C@@H]4CSSC[C@H](NC(=O)[C@H](CC(=O)O)NC(=O)[C@H](CO)NC(=O)[C@H](CC(=O)O)NC(=O)[C@H](CCCNC(=N)N)NC(=O)[C@H](CCCNC(=N)N)NC(=O)[C@H](CSSC[C@H](NC1=O)C(=O)N[C@@H](CCCNC(=N)N)C(=O)NCC(=O)N[C@@H](CC(N)=O)C(=O)NCC(=O)N[C@@H](Cc1ccc(O)cc1)C(=O)N4)NC(=O)[C@H](CCCNC(=N)N)NC(=O)[C@H](CCC(N)=O)NC(=O)[C@H](CC(C)C)NC(=O)[C@H]([C@@H](C)CC)NC(=O)[C@H](CCCCN)NC(=O)[C@@H]1CCCN1C3=O)C(=O)N1CCC[C@H]1C(=O)NCC(=O)N[C@@H](C)C(=O)N2` [MCo-PMI], for which the “Association constant rate to human serum proteins” value was 2400 M⁻¹ s⁻¹ and the “Dissociation constant rate from human serum proteins” value stood at 0.022 s⁻¹. Further, in data set [1], the “Body weight throughout treatment” value was “maintained healthy weight”; the “Organs and tissues at necropsy” value is on record as “no gross abnormalities”. For the same molecule, the “Time of peak p53 level post-treatment” value in the data set with p53 level was in the range of 36 to 48 h. Also, the “Effect on cell cycle progression” value in the data set with LNCaP cells is “depression of the S-phase fraction”. Besides, the “Effect on cell viability” value in the data set with PC3 cells is listed as “unaffected”. The Caspase-3/7 activation result in the data set on caspase-3/7 is “dose-dependent caspase-3 activation”. In addition, the half-life in “in vitro” was 30 ± 4 h. Besides, the “Effect on cell viability” value in the data set with DU145 cells is “unaffected”. In addition, in the data set on HdmX level, the “Effect on intracellular HdmX level” value is reported as “downregulated”.

`COc1ccc(C2=N[C@@H](c3ccc(Cl)cc3)[C@@H](c3ccc(Cl)cc3)N2C(=O)N2CCNC(=O)C2)c(OC(C)C)c1` [Nutlin-3, reference compound]: the “Effect on cell cycle progression” value with LNCaP cells is reported as “depression of the S-phase fraction”. Also, the “Effect on cell viability” value in the data set on PC3 cells and in the data set on DU145 cells was “unaffected” throughout. Besides, the “EC50, cytotoxicity to non-cancerous cells” value with HBL100 cells came to 33 ± 5 µM.

B1: cyclotide Momordica cochinchinensis trypsin inhibitor-I (natural protein)
chain: cyclo(SGSDGGVCPKILQRCRRDSDCPGACICRGNGYCG)
modifications: disulfide (positions not given here)
In the data set with serum proteins (human), B1 displayed a percent bound of 80%.
